# Reference: patent US9532519B2, “Plant growth regulator and use thereof” (Japan Science and Technology Agency, priority 2006, dated 2017)
# Key:
# [1] = system: Rose saplings (breed; Purple rose); test: Effect 1 on promoting growth of sprout and floral bud of rose (Purple rose); type: in vivo; conditions: 50 mL of 0.5 mM-GSSG two times a week; one month from the fertilization
# Method: Rose saplings (breed; Purple rose) were purchased at a hardware store and cultivated in pods for rice hydroponics. The rose saplings were fertilized with 50 mL of a 0.5 mM-GSSG solution in the form of a liquid fertilizer two times a week.
# [2] = system: Sweet corn; conditions: in vivo
# [3] = system: Arabidopsis GA synthesis mutants ga20ox1; test: Effect of oxidized glutathione on gibberellin synthesis mutant; type: in vivo; conditions: GSSG (1 mM) from sowing
# Text: In the drawing, “Col” indicates a wild-type Columbia, and “ga20ox1” indicates a mutant in which T-DNA is inserted into a GA20 oxidase gene that codes an enzyme of a GA biosynthesis. “ga20ox1-1” and “ga20ox1-2” are independent mutants in which T-DNA are inserted into different portions.
# [4] = system: rice (Akita 63); test: Rice hydroponics, GSSG in additional fertilization, number of ears; type: in vivo; conditions: GSSG 0.2 gN per test location (0.1 m2) in additional fertilization
# Text: In particular, the method is effective for a plant such as gramineae whose yield is greatly dependent on tillers.
# [5] = system: Sweet corn; test: Effect of oxidized glutathione on productivity of corn under nitrogen-deficient condition; type: in vivo; conditions: nitrogen-deficient then 30 kgN/10a; 0.2, 0.5, 1.0 mM GSSG, 50 mL two times a week from 8 weeks after sowing
# Method: Sweet corn was sown and cultivated for […] (7 weeks) after the sowing without supplying a nitrogen source to the sweet corn. Thereafter, the sweet corn was cultivated with 30 kgN/10a of a nitrogen source. […] See the cultivation conditions in (c) of FIG. 33.
# In order to examine the amount of production of the plants in more detail, the amounts of biomass of fruits, ground parts, and portions other than the fruits were measured, and harvest index was calculated.
# [6] = system: Rose (breed; English rose); test: Influence of oxidized glutathione on growth of rose (English rose); type: in vivo; conditions: 50 mL of 0.5 mM-GSSG two times a week for four months, then pruned
# Method: Rose (breed; English rose) was fertilized with 50 mL of a 0.5 mM-GSSG solution two times a week for four months and then pruned completely and cultivated.
# [7] = system: Roses (breed; Patiohit alicante); test: Effect 1 on promotion of induction of floral bud of rose; type: in vivo; conditions: 50 mL of 0.5 mM-GSSG two times a week; approximately three and a half months
# Method: Roses (breed; Patiohit alicante) were purchased at a hardware store and fertilized with 50 mL of a 0.5 mM-GSSG solution in the form of a liquid fertilizer two times a week. Approximately three and a half months later, plants in a GSSG-treated zone and plants in a non-GSSG-treated zone were compared with each other.
# [8] = system: Sweet corn (Canberra 90, TAKII & CO., LTD.); test: Effect 2 of oxidized glutathione on productivity of corn (time of treatment); type: in vivo
# Method: (§1) Sweet corn (Canberra 90, TAKII & CO., LTD.) was sown, and then transferred to a hydroponics pot ( 1/2000 are) filled with a culture soil (6 L of vermiculite as the lower layer, 3 L of The Kureha Ikubyou Baido soil as the middle layer, and 3 L of vermiculite as the upper layer) two weeks later and additionally fertilized with 3 g of KUMIAI RIN […] S604 four weeks later and six weeks later.
# Further, the GSSG-treated plant was given 50 mL of 0.2 mM-GSSG solution four times in 2 weeks (two times a week) after 2 weeks, 4 weeks, or 6 weeks had elapsed from the sowing. Further, there were prepared a management zone to which 0.2 mM-GSSG was given 22 times in total for 11 weeks after 2 weeks had elapsed from the sowing and a management zone to which 0.2 mM-GSSG was not given.
# The amount of fruits and the amount of biomass of ground parts of each plant were measured and harvest index was calculated.
# [9] = system: Sweet corn (Canberra 90, TAKII & CO., LTD.); test: Effect 1 of oxidized glutathione on productivity of corn; type: in vivo; conditions: 200 mL of 0.5 mM-GSSG two times a week for 12 weeks at root
# Method: as §1, with “later. Further, the GSSG-treated plant was given 200 mL of 0.5 mM-GSSG two times a week for 12 weeks after germination at its root.” for “later.”
# [10] = system: transformants of Arabidopsis to which a gene encoding gFBA was introduced and wild-type Arabidopsis (Columbia; Col); conditions: in vivo
# [11] = system: Arabidopsis; test: Influence of oxidized glutathione on growth of Arabidopsis; type: in vivo; conditions: in vivo
# Method: Specifically, the plants were cultivated with two or three plants in one pod of approximately 65 in width, 65 in depth, and 50 in height, and an appropriate amount of a treatment solution was supplied. The effect of the treatment was evaluated with respect to the number of rosette leaves, the speed of a growing flower stalk, the number of flowers, and the number of seeds.
# [12] = system: eustoma; test: Effect on promoting growth of roots of eustoma; type: in vivo; conditions: MS culture medium containing 1 mM-GSSG or GSH, grown 1 month, transferred to planter
# Text: In the planter, 2 parts of vermiculite, 1 part of The Kureha Ikubyou Baido soil, and 1 part of vermiculite were layered as a lower layer, a middle layer, and an upper layer, respectively, and the above plants were transferred thereto.
# [13] = system: transformants of Arabidopsis to which a gene encoding gFBA was introduced and the wild-type Arabidopsis (Columbia; Col); conditions: in vivo
# [14] = 0.2 mM-GSSG, eleven weeks after two weeks had elapsed from the sowing
substance,measurement,setting,value
oxidized glutathione [GSSG],growth of sprout vs not treated,[1],promoted growth of sprout
same,amount of biomass of fruits per plant vs not treated,[2],higher amount of biomass of fruits
same,amount of biomass of ground parts vs not treated,[2],substantially the same or lower amount of biomass of ground parts
same,amount of biomass of the portions other than fruits vs not treated,[2],lower amount of biomass of the portions other than fruits
same,amounts of biomass of the portions other than fruits and ground parts vs not treated,[2],greatly lower amounts of biomass of the portions other than fruits and ground parts
same,harvest index vs not treated,[2],higher harvest index
same,whole amount of biomass per area vs not treated,[2],did not exhibit a significant difference
same,seed weight,[3],significantly increased
same,number of flowers (sheaths),[3]; 8 weeks after the sowing,also increased
same,number of lateral shoots vs water,[3]; 8 weeks after the sowing,significantly increased
same,number of ears relative to plant cultivated with only water,[4],approximately 1.4 times
same,amount of fruits vs not treated,[5],larger amount of fruits
same,"amounts of biomass of fruits, ground parts, portions other than the fruits, and harvest index vs not treated",[5],"larger amounts of biomass of fruits, ground parts, and portions other than the fruits and harvest index"
same,germination and growth of new buds vs not treated,[6],significantly earlier germination and significant promotion of growth of new buds
same,number of bloomed flowers vs not treated,[7],greatly larger number of bloomed flowers
same,amount of fruits and amount of biomass of ground parts per plant vs not treated,[8]; [14],a larger amount of fruits and a larger amount of biomass of ground parts
same,harvest index vs not treated,[8]; [14],great increase in harvest index
same,amount of fruits and amount of biomass of ground parts per plant vs not treated,"[8]; 0.2 mM-GSSG, two weeks after four weeks had elapsed from the sowing",a larger amount of fruits and a larger amount of biomass of ground parts
same,amount of fruits and amount of biomass of ground parts per plant vs not treated,"[8]; 0.2 mM-GSSG, two weeks after six weeks had elapsed from the sowing",a smaller amount of fruits and a smaller amount of biomass of ground parts
same,harvest index vs not treated,"[8]; 50 mL of 0.2 mM-GSSG, two weeks after four weeks had elapsed from the sowing",great increase in harvest index
same,harvest index vs not treated,"[8]; 50 mL of 0.2 mM-GSSG, two weeks after six weeks had elapsed from the sowing",larger harvest index
same,amount of biomass of the portions other than the fruits vs not treated,[9],no great difference
same,amounts of biomass of the fruits and ground parts,[9],significantly high
same,formation of floral buds vs not treated,[9],promotion of formation of floral buds
same,harvest index vs not treated,[9],significantly high harvest index
same,number of edible seeds vs not treated,[9],more number of edible seeds
same,size of fruits vs not treated,[9],larger
same,size of seeds vs not treated,[9],larger
same,"ability to increase harvest index and crop yields, oxidized vs reduced glutathione",[10],higher ability to increase the harvest index and to significantly increase crop yields than reduced glutathione
same,effective number of seeds per plant relative to plants cultivated with only water or 5 mM H2O2,[11],approximately three or four times as large
same,growth of leaves (size and shape),[11],grew larger and rounder
same,number of flowers and area of leaves,[11],greatly larger
same,"plant length, stem and leaves",[11],"shorter plant length, a thicker stem, and larger leaves"
same,state of plant (life of plant),[11],showed much amount of green leaves
same,growth of roots vs plants not treated with GSSG,[12],significant growth of roots
same,"harvest index, whole amount of biomass and seed weight",[13],"increased any of the harvest index, the whole amount of biomass, and the seed weight"
